The values below come from patent US20050176655A1, “Novel macrolide derivatives havaing effect of potentiating antifungal activity” (priority 2002, published 2005).

The subject of test [1] is Candida albicans ATCC 64548. The experiment in a line: Paper disk method, enhancing action for activities of azole antifungal agents. To be noted: 24 hours; for Inhibition activity (inhibition ring mm) C. albicans ATCC 64548 GYM / Transparency of the inhibition ring C. albicans ATCC 64548 GYM: miconazole 0.03 μg/ml; for Inhibition activity (inhibition ring mm) C. albicans ATCC 64548 GYF / Transparency of the inhibition ring C. albicans ATCC 64548 GYF: fluconazole 0.5 μg/ml. It is filed as cell-based. On the procedure: (§1) Test organisms used were Candida albicans ATCC 64548, fluconazole resistant Candida albicans ATCC 64550 and Aspergillus niger ATCC 6275. Candida spp. were cultured in Waksman broth (glucose 2.0%, peptone 0.5%, dry yeast 0.3%, meat extract 0.5%, NaCl 0.5% and CaCO3 0.3%, pH 7.0) at 27° C. for 40 hours, then 0.1% thereof was inoculated on GY agar medium (glucose 1.0%, yeast extract 0.5% and agar 0.8%, pH 6.0). Spore suspension 0.2% of Aspergillus niger ATCC 6275 was inoculated on GY agar medium.
(§2) Azole antifungal agents used were miconazole (Sigma Inc., the U.S.) and fluconazole (ICN Pharmaceuticals, Inc., the U.S.), and were added at concentrations without affecting growth on each test organisms follows.
Candida albicans ATCC 64548: miconazole 0.03 μg/ml or fluconazole 0.5 μg/ml.
(§3) In the above medium, a medium added with miconazole to GY medium (control) is designated as GYM, and a medium added with fluconazole is designated as GYF. Activities were assessed by means of paper disk method (thickness: 8 mm, ADVANTEC MFS INC., Japan). Diameter of inhibition ring is expressed with mm unit after culturing Candida spp. for 24 hours and Aspergillus niger ATCC 6275 for 48 hours. Transparency of the inhibition ring is assessed with 5 degrees of A, B, C, D and E (transparence<A<B<C<D<E<opaque).

In test [2] the test system is Aspergillus niger ATCC 6275. The description is as above. It is filed as cell-based. To be noted: 48 hours; for Inhibition activity (inhibition ring mm) A. niger ATCC 6275 GYF / Transparency of the inhibition ring A. niger ATCC 6275 GYF: fluconazole 10 μg/ml; for Inhibition activity (inhibition ring mm) A. niger ATCC 6275 GY / Transparency of the inhibition ring A. niger ATCC 6275 GY: GY medium (control, no azole). On the procedure:
as §1, §2
Aspergillus niger ATCC 6275: miconazole 0.1 μg/ml or fluconazole 10 μg/ml.
as §3

[3] abbreviates: 100 μg/8 mm disk, GYM, miconazole 0.1 μg/ml.

Take `CCC1OC(=O)C(C)C(OC2CC(C)(OC)C(O)C(C)O2)C(C)C(OC2OC(C)CC(N(C)CC=CCN(C)C3CC(C)OC(OC4C(C)C(OC5CC(C)(OC)C(O)C(C)O5)C(C)C(=O)OC(CC)C(C)(O)C(O)C(C)C(=O)C(C)CC4(C)OC)C3O)C2O)C(C)(OC)CC(C)C(=O)C(C)C(O)C1(C)O` (stereo not drawn) [Compound 758, 3′-de-N-methyl-3′-N-{4-amino-(3′-de-N-methyl-clarythromycin A)}-2(E)-butenyl-clarythromycin A]: in test [1] (10 μg/8 mm disk), the “Inhibition activity (inhibition ring mm) C. albicans ATCC 64548 GYM” value worked out at 11 mm and the “Transparency of the inhibition ring C. albicans ATCC 64548 GYM” value is given as “E (Growth of test organism was inhibited 35% or less.)”. Moreover, in test [1] (50 μg/8 mm disk), the “Inhibition activity (inhibition ring mm) C. albicans ATCC 64548 GYM” value came to 12 mm; the “Transparency of the inhibition ring C. albicans ATCC 64548 GYM” value was “D (Growth of test organism was inhibited 35% or more and 55% or less.)”. Further, in test [1] (100 μg/8 mm disk), the “Inhibition activity (inhibition ring mm) C. albicans ATCC 64548 GYF” value is on record as 15 mm and the “Transparency of the inhibition ring C. albicans ATCC 64548 GYF” value is “E (Growth of test organism was inhibited 35% or less.)”.

Take `CCC(O)C(C)(O)C1OC(=O)C(C)C(OC2CC(C)(OC)C(O)C(C)O2)C(C)C(OC2OC(C)CC(N(C)CCN(C)C3CC(C)OC(OC4C(C)C(OC5CC(C)(OC)C(O)C(C)O5)C(C)C(=O)OC(C(C)(O)C(O)CC)C(C)C5=C(C)CC4(C)O5)C3O)C2O)C2(C)CC(C)=C(O2)C1C` (stereo not drawn) [Compound 741, 3′-de-N-methyl-3′-N-{-amino-(3′-de-N-methyl-anhydro-pseudoerythromycin A 6,9-hemiketal)}ethyl-anhydro-pseudoerythromycinA 6,9-hemiketal]: in test [1] (100 μg/8 mm disk), the “Inhibition activity (inhibition ring mm) C. albicans ATCC 64548 GYM” value was determined as 14 mm; the “Transparency of the inhibition ring C. albicans ATCC 64548 GYM” value was “D (Growth of test organism was inhibited 35% or more and 55% or less.)”.

Consider `CCC1OC(=O)C(C)C(OC2CC(C)(OC)C(O)C(C)O2)C(C)C(OC2OC(C)CC(N(C)C)C2O)C(C)(O)CC(C)C(=NOCC=CCNCCN)C(C)C(O)C1(C)O` (stereo not drawn) [Compound 763, 9(E)-4-(aminoethylamino)-2-butenyloxime-erythromycin A], for which, in test [1] (50 μg/8 mm disk), the “Inhibition activity (inhibition ring mm) C. albicans ATCC 64548 GYF” value is given as 10 mm; the “Transparency of the inhibition ring C. albicans ATCC 64548 GYF” value was “D (Growth of test organism was inhibited 35% or more and 55% or less.)”; the “Inhibition activity (inhibition ring mm) C. albicans ATCC 64548 GYM” value is recorded as 16 mm; the “Transparency of the inhibition ring C. albicans ATCC 64548 GYM” value is “C (Growth of test organism was inhibited 55% or more and 75% or less.)”. In test [2] (10 μg/8 mm disk), the “Inhibition activity (inhibition ring mm) A. niger ATCC 6275 GYF” value was found to be 12 mm and the “Transparency of the inhibition ring A. niger ATCC 6275 GYF” value is recorded as “E (Growth of test organism was inhibited 35% or less.)”. For the same molecule, in test [2] (50 μg/8 mm disk), the “Inhibition activity (inhibition ring mm) A. niger ATCC 6275 GYF” value was 15 mm and the “Transparency of the inhibition ring A. niger ATCC 6275 GYF” value is listed as “E (Growth of test organism was inhibited 35% or less.)”.

Regarding `CCC1OC(=O)C(C)C(OC2CC(C)(OC)C(O)C(C)O2)C(C)C(OC2OC(C)CC(N(C)CC=CCN(C)C3CC(C)OC(OC4C(C)C(OC5CC(C)(OC)C(O)C(C)O5)C(C)C(=O)OC(CC)C(C)(O)C(O)C(C)C(=O)C(C)CC4(C)O)C3O)C2O)C(C)(O)CC(C)C(=O)C(C)C(O)C1(C)O` (stereo not drawn) [Compound 757, 3′-de-N-methyl-3′-N-{4-amino-(3′-de-N-methyl-erythromycin A)}-2(E) -butenyl-erythromycin A], in test [1] (100 μg/8 mm disk), the “Inhibition activity (inhibition ring mm) C. albicans ATCC 64548 GYF” value is 17 mm; the “Transparency of the inhibition ring C. albicans ATCC 64548 GYF” value is recorded as “E (Growth of test organism was inhibited 35% or less.)”; the “Inhibition activity (inhibition ring mm) C. albicans ATCC 64548 GYM” value is 18 mm; the “Transparency of the inhibition ring C. albicans ATCC 64548 GYM” value is “D (Growth of test organism was inhibited 35% or more and 55% or less.)”. For the same molecule, in test [2] (50 μg/8 mm disk), the “Inhibition activity (inhibition ring mm) A. niger ATCC 6275 GY” value is given as 10 mm and the “Transparency of the inhibition ring A. niger ATCC 6275 GY” value was “E (Growth of test organism was inhibited 35% or less.)”.

Turning to `CCC1OC(=O)C(C)C(OC2CC(C)(OC)C(O)C(C)O2)C(C)C(OC2OC(C)CC(N(C)CCN(C)C3CC(C)OC(OC4C(C)C(OC5CC(C)(OC)C(O)C(C)O5)C(C)C(=O)OC(CC)C(C)(O)C(O)C(C)C(=O)C(C)CC4(C)OC)C3O)C2O)C(C)(OC)CC(C)C(=O)C(C)C(O)C1(C)O` (stereo not drawn) [Compound 753, 3′-de-N-methyl-3′-N-{2-amino-(3′-de-N-methyl-clarythromycin A)}ethyl-clarythromycin], in test [1] (10 μg/8 mm disk), the “Inhibition activity (inhibition ring mm) C. albicans ATCC 64548 GYM” value came to 17 mm; the “Transparency of the inhibition ring C. albicans ATCC 64548 GYM” value is “C (Growth of test organism was inhibited 55% or more and 75% or less.)”. Besides, in test [1] (50 μg/8 mm disk), the “Inhibition activity (inhibition ring mm) C. albicans ATCC 64548 GYM” value stood at 22 mm; the “Transparency of the inhibition ring C. albicans ATCC 64548 GYM” value was “C (Growth of test organism was inhibited 55% or more and 75% or less.)”. For the same molecule, in test [2] (setting [3]), the “Inhibition activity (inhibition ring mm) A. niger ATCC 6275 GYM” value is 13 mm and the “Transparency of the inhibition ring A. niger ATCC 6275 GYM” value is “E (Growth of test organism was inhibited 35% or less.)”.

For `CCC1OC(=O)C(C)C(OC2CC(C)(OC)C(O)C(C)O2)C(C)C(OC2OC(C)CC(N(C)C)C2O)C(C)(O)CC(C)C(=NOCC=CCNCCNCC=CCON=C2C(C)CC(C)(O)C(OC3OC(C)CC(N(C)C)C3O)C(C)C(OC3CC(C)(OC)C(O)C(C)O3)C(C)C(=O)OC(CC)C(C)(O)C(O)C2C)C(C)C(O)C1(C)O` (stereo not drawn) [Compound 761], in test [1] (100 μg/8 mm disk), the “Inhibition activity (inhibition ring mm) C. albicans ATCC 64548 GYM” value is listed as 14 mm and the “Transparency of the inhibition ring C. albicans ATCC 64548 GYM” value is given as “E (Growth of test organism was inhibited 35% or less.)”.

`CCC1OC(=O)C(C)C(OC2CC(C)(OC)C(O)C(C)O2)C(C)C(OC2OC(C)CC(N(C)C)C2O)C(C)(O)CC(C)C(=NOCC=CCON=C2C(C)CC(C)(O)C(OC3OC(C)CC(N(C)C)C3O)C(C)C(OC3CC(C)(OC)C(O)C(C)O3)C(C)C(=O)OC(CC)C(C)(O)C(O)C2C)C(C)C(O)C1(C)O` (stereo not drawn) [Compound 759, 9(E)-4-{9(E)-oxime-erythromycin A}-2-butenyloxime-erythromycin A]: in test [1] (100 μg/8 mm disk), the “Inhibition activity (inhibition ring mm) C. albicans ATCC 64548 GYM” value was 13 mm; the “Transparency of the inhibition ring C. albicans ATCC 64548 GYM” value was “D (Growth of test organism was inhibited 35% or more and 55% or less.)”.

Take `CCC1OC(=O)C(C)C(OC2CC(C)(OC)C(O)C(C)O2)C(C)C(OC2OC(C)CC(N(C)C)C2O)C(C)(O)CC(C)C(=NOCCCCON=C2C(C)CC(C)(O)C(OC3OC(C)CC(N(C)C)C3O)C(C)C(OC3CC(C)(OC)C(O)C(C)O3)C(C)C(=O)OC(CC)C(C)(O)C(O)C2C)C(C)C(O)C1(C)O` (stereo not drawn) [Compound 764, 9(E)-4-{9(E)-oxime-erythromycin A}-2(E)buthyloxime-erythromycin A]: in test [1] (50 μg/8 mm disk), the “Inhibition activity (inhibition ring mm) C. albicans ATCC 64548 GYM” value is recorded as 9 mm and the “Transparency of the inhibition ring C. albicans ATCC 64548 GYM” value is on record as “E (Growth of test organism was inhibited 35% or less.)”.

For `C=CCCON=C1C(C)CC(C)(O)C(OC2OC(C)CC(N(C)C)C2O)C(C)C(OC2CC(C)(OC)C(O)C(C)O2)C(C)C(=O)OC(CC)C(C)(O)C(O)C1C` (stereo not drawn) [Compound 769, 9(E)-3-butenyloxime-erythromycin A], in test [1] (100 μg/8 mm disk), the “Inhibition activity (inhibition ring mm) C. albicans ATCC 64548 GYM” value is 14 mm and the “Transparency of the inhibition ring C. albicans ATCC 64548 GYM” value was “E (Growth of test organism was inhibited 35% or less.)”. Besides, in test [2] (10 μg/8 mm disk), the “Inhibition activity (inhibition ring mm) A. niger ATCC 6275 GYF” value is on record as 11 mm and the “Transparency of the inhibition ring A. niger ATCC 6275 GYF” value is “E (Growth of test organism was inhibited 35% or less.)”. In addition, in test [2] (50 μg/8 mm disk), the “Inhibition activity (inhibition ring mm) A. niger ATCC 6275 GY” value is listed as 10 mm, the “Transparency of the inhibition ring A. niger ATCC 6275 GY” value is on record as “E (Growth of test organism was inhibited 35% or less.)”, the “Inhibition activity (inhibition ring mm) A. niger ATCC 6275 GYF” value is on record as 16 mm and the “Transparency of the inhibition ring A. niger ATCC 6275 GYF” value was “E (Growth of test organism was inhibited 35% or less.)”.

“2′,4″,13-Tri-O-anhydro-pseudoerythromycin A 6,9-hemiketal [Compound 719]”: the “Inhibition activity (inhibition ring mm) C. albicans ATCC 64548 GYM” value in test [1] (10 μg/8 mm disk) is recorded as 9 mm; in test [1] (50 μg/8 mm disk), 10 mm; in test [1] (100 μg/8 mm disk) it was 13 mm. In addition, the “Transparency of the inhibition ring C. albicans ATCC 64548 GYM” value in test [1] (10 μg/8 mm disk), in test [1] (50 μg/8 mm disk) and in test [1] (100 μg/8 mm disk) was “E (Growth of test organism was inhibited 35% or less.)” each time.
